Measured values: patent publication US20250051338A1, “TYK2 DEGRADERS AND USES THEREOF” (Kymera Therapeutics, Inc., priority 2021, published 2025)

Legend:
Format in all cases: cell-based
TYK2 [1] = target: T1, TYK2 (Homo sapiens, UniProt P29597); test: TYK2 degradation MSD assay in OCI-LY10 cells; parameters: endogenous in cells; host or cells: EBV-B cells; settings: 4 to 24 hours incubation, read-out: TYK2 MSD DC50 rating in OCI-LY10
Method in brief: (§1)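 Cells (0.4 million per well) were treated with a 9-point, 1:3 compound series from a top concentration of 1 to 10 μM for 4 to 24 hours at 37° C, then lysed in RIPA with protease/phosphatase inhibitors. Remaining TYK2 was quantified by sandwich MSD immunoassay; DC50 came from four-parameter nonlinear fits.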

TYK2 [2] = target: T1, TYK2; test: TYK2 degradation MSD assay in human PBMC cells; parameters: endogenous in cells; host or cells: human PBMC; settings: 4 to 24 hours incubation, read-out: TYK2 MSD DC50 rating in human PBMC
Method in brief: as §1

TYK2 [3] = target: T1, TYK2; test: TYK2 degradation MSD assay in EBV-B cells; parameters: endogenous in cells; host or cells: EBV-B cells
Method in brief: as §1

[4] = 4 to 24 hours incubation, read-out: TYK2 MSD DC50 rating in EBV-B

T1 sequence (P29597 whole entry): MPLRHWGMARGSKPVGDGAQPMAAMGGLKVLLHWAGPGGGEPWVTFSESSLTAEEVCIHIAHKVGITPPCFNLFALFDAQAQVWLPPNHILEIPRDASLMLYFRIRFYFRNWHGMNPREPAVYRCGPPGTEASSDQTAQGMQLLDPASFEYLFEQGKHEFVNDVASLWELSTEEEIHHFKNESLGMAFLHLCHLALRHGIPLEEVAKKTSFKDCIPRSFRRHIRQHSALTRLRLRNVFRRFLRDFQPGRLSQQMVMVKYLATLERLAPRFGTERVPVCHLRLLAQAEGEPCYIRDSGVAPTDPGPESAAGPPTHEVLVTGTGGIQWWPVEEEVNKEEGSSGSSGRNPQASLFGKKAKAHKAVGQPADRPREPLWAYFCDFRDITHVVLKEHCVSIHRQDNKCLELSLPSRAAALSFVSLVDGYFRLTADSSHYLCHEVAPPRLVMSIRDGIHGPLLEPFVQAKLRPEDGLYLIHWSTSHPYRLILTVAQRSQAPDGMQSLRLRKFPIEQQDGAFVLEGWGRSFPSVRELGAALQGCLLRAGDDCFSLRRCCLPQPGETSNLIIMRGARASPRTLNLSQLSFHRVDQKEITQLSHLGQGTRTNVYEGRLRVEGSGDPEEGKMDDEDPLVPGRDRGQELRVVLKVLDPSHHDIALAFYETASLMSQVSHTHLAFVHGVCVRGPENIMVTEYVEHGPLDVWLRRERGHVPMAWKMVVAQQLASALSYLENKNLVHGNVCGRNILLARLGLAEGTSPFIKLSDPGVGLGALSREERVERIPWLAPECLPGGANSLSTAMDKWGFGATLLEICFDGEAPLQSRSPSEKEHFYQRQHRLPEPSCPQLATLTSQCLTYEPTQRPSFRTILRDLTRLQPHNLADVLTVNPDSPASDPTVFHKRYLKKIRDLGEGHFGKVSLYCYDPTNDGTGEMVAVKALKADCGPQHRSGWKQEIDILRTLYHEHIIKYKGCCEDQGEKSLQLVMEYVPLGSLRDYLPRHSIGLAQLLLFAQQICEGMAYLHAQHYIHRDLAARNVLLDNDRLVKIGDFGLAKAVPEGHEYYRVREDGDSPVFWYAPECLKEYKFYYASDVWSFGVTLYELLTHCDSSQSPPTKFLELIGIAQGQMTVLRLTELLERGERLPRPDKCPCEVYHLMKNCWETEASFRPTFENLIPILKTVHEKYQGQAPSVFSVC

Row | SMILES | DC50 (TYK2 [1]) [nM] | DC50 (TYK2 [2]) [nM] | DC50 (TYK2 [3]; [4]) [nM] | DC50 (TYK2 [3]; read-out: TYK2 MSD DC50 rating in EBV-B, 4 to 24 hours incubation) [nM]
1 | CNc1cc(Nc2cccn(-c3ccc(C(=O)NCCCCc4ccc5c(c4)n(C)c(=O)n5C4CCC(=O)NC4=O)cn3)c2=O)nn2c(C(=O)NC3CCC3)cnc12 (stereo not drawn) [Example K321] | > 100 | > 100 | > 100 | 
2 | CNc1cc(Nc2cccn(-c3ccc(C(=O)NCCCCc4ccc5c(c4)n(C)c(=O)n5C4CCC(=O)NC4=O)cn3)c2=O)nn2c(C(=O)NC3CC3)cnc12 (stereo not drawn) [Example K322] | > 100 | > 100 | > 100 | 
3 | Cn1c(=O)n(C2CCC(=O)NC2=O)c2ccc(CCCCNC(=O)c3ccc(-c4ccc5ncc(C(=O)N[C@@H]6C[C@@H]6F)n5n4)cc3)cc21 (stereo partly drawn) [Example K324] | > 100 | > 100 | > 100 | 
4 | Cn1c(=O)n(C2CCC(=O)NC2=O)c2ccc(CCCCNC(=O)c3cccc(Nc4ccc5ncc(C(=O)N[C@@H]6C[C@@H]6F)n5n4)c3)cc21 (stereo partly drawn) [Example K328] | > 100 | > 100 |  | > 100
5 | CNc1cc(Nc2cccn(C3CCN(C(=O)NCCCCc4ccc5c(c4)n(C)c(=O)n5C4CCC(=O)NC4=O)CC3)c2=O)nc2c(C(=O)N[C@@H]3C[C@@H]3F)cnn12 (stereo partly drawn) [Example K330] | > 100 | > 100 | > 100 | 
6 | Cn1c(=O)n(C2CCC(=O)NC2=O)c2ccc(CN3CCC(CNc4cc(Nc5cccn(-c6ccccn6)c5=O)nn5c(C(=O)N[C@@H]6C[C@@H]6F)cnc45)CC3)cc21 (stereo partly drawn) [Example K360] | > 100 | > 100 | > 100 | 
7 | CNc1cc(-c2cnn(C3CCC(CN4CC5(CCN(c6cccc7c6n(C)c(=O)n7C6CCC(=O)NC6=O)CC5)C4)CC3)c2)nn2c(C(=O)NC3C[C@@H]3F)cnc12 (stereo partly drawn) [Example K362] | > 100 | < 1 | > 100 | 
8 | CNc1cc(-c2cnn(C3CCC(CN4CCC(CN(C)c5ccc6c(c5)n(C)c(=O)n6C5CCC(=O)NC5=O)CC4)CC3)c2)nn2c(C(=O)NC3C[C@@H]3F)cnc12 (stereo partly drawn) [Example K364] | > 100 | > 100 | > 100 | 
9 | Cn1c(=O)n(C2CCC(=O)NC2=O)c2ccc(-c3ccc(CCCNc4cc(Nc5cccn(-c6ccccn6)c5=O)nn5c(C(=O)N[C@@H]6C[C@@H]6F)cnc45)nc3)cc21 (stereo partly drawn) [Example K365] | > 100 | > 100 | > 100 | 

Now from value to molecule, other results behind:

Row | DC50 (TYK2 [1]) [nM] | DC50 (TYK2 [2]) [nM] | DC50 (TYK2 [3]; [4]) [nM] | SMILES | DC50 (TYK2 [3]; read-out: TYK2 MSD DC50 rating in EBV-B, 4 to 24 hours incubation) [nM]
10 | > 100 | > 100 | > 100 | CNc1cc(Nc2cccn(-c3ccc(C(=O)NCCCCc4ccc5c(c4)n(C)c(=O)n5C4CCC(=O)NC4=O)cn3)c2=O)nn2c(C(N)=O)cnc12 (stereo not drawn) [Example K320] | 
11 | > 100 | > 100 | > 100 | Cn1c(=O)n(C2CCC(=O)NC2=O)c2ccc(CCCCNC(=O)c3ccc(-n4cccc(Nc5ccc6ncc(C(=O)N[C@@H]7C[C@@H]7F)n6n5)c4=O)nc3)cc21 (stereo partly drawn) [Example K325] | 
12 | > 100 | > 100 | > 100 | Cn1c(=O)n(C2CCC(=O)NC2=O)c2ccc(CCCCNC(=O)c3ccccc3Nc3ccc4ncc(C(=O)N[C@@H]5C[C@@H]5F)n4n3)cc21 (stereo partly drawn) [Example K326] | 
13 | > 100 | > 100 | > 100 | Cn1c(=O)n(C2CCC(=O)NC2=O)c2ccc(CCCCC(=O)N3CCC(n4cc(-c5ccc6ncc(C(=O)N[C@@H]7C[C@@H]7F)n6n5)cn4)CC3)cc21 (stereo partly drawn) [Example K327] | 
14 | > 100 | < 1 | > 100 | CNc1cc(Nc2cccn(-c3ccc(C(=O)N4CCC(CC#Cc5cccc6c5n(C)c(=O)n6C5CCC(=O)NC5=O)CC4)cn3)c2=O)nn2c(C(=O)N[C@@H]3C[C@@H]3F)cnc12 (stereo partly drawn) [Example K331] | 
15 | > 100 | > 100 | > 100 | CNc1cc(-c2cnn(C3CCC(CN(C)C4CCN(c5ccc6c(c5)n(C)c(=O)n6C5CCC(=O)NC5=O)CC4)CC3)c2)nn2c(C(=O)N[C@@H]3C[C@@H]3F)cnc12 (stereo partly drawn) [Example K361] | 
16 | > 100 | < 1 | > 100 | CNc1cc(-c2cnn(C3CCC(CN4CC5(CCN(c6ccc7c(c6)n(C)c(=O)n7C6CCC(=O)NC6=O)CC5)C4)CC3)c2)nn2c(C(=O)N[C@@H]3C[C@@H]3F)cnc12 (stereo partly drawn) [Example K363] | 
